Assay results as given in PMC4109680, “Identification and Preclinical Pharmacology of the γ-Secretase Modulator BMS-869780” (International Journal of Alzheimer's Disease, 2014).

Experiments:
Aβ1-42 (H4-APPsw) = test: Aβ1-42 time-resolved fluorescence immunoassay in H4-APPsw cell cultures; assay type: cell-based, human; settings: Homo sapiens; H4-APPsw cultures treated overnight
Procedure: (§1) H4-APPsw cell cultures were maintained on Dulbecco's modified Eagle's medium (DMEM) supplemented with L-glutamine (2 mM), fetal bovine serum (10%), and G418 (100 μg/mL). […] Aβ1-42 and Aβ1-40 assays, and Notch inhibition assays, were carried out as described previously. Mouse embryonic fibroblasts deficient in PS1 and PS2 (MEF dKO) were passaged twice per week in DMEM/F-12 medium, consisting of a 1 : 1 mixture of DMEM and F-12 nutrient mixture supplemented with 10% fetal bovine serum, penicillin, and streptomycin. For expression of human presenilin-1 in MEF dKO cells, the full length human presenilin-1 cDNA open reading frame was cloned between the BamHI and XhoI sites of the vector pcDNA5/FRT (Invitrogen), placing presenilin-1 expression under the control of the CMV promoter. The M146V mutated allele was introduced into the presenilin-1 expression construct by polymerase chain reaction using the oligonucleotide primers 5′-[…]-3′ and 5′-[…]-3 (QuikChange kit, Invitrogen). MEF dKO cultures were cotransfected with DNA constructs expressing APP-CTF, encoding the C-terminal 99 amino acids of APP [61] and either the human presenilin-1 or presenilin-1 M146V allele. Transfected cultures were incubated overnight at 37°C in 5% CO2 atmosphere and then harvested, resuspended in DMEM/F-12 medium, dispensed into 96-well culture plates, and incubated for 6 hours at 37°C in 5% CO2 atmosphere. Culture medium was then replaced with Ultraculture serum free medium (Lonza, Rockland, ME) with or without compounds at a range of concentrations and incubated overnight.
(§2) IC50 determinations for Aβ1-42 and Aβ1-40 in H4-APPsw cultures in 384-well format were determined using homogeneous time-resolved fluorescence immunoassays as previously described. The principle of these assays is illustrated in Figures 1(c) and 1(d). In other experiments using H4-APPsw cultures, Aβ was quantified by ELISA; for Aβ1-42 the combination of monoclonal antibodies was 26D6 and 565-HRP; for Aβ1-40 it was TSD and 26D6-HRP, and for Aβ1-x it was 4G8 and 26D6-HRP. In some experiments a novel 4-plex Aβ electrochemiluminescence immunoassay was used (Mesoscale Discovery catalog number N45ZA-1). Briefly, the 4-plex was carried out in 96-well format, with 4 separate spots of capture antibodies in each well. […] For Aβ in transiently transfected PS1/PS2 dKO fibroblasts, Aβ1-42 was quantified using an ELISA kit (WACO), and Aβ1-40 was quantified by ELISA as described above for H4-APPsw cultures. […] For the rat and mouse experiments illustrated in Figures 7 and 8, brain samples were prepared by solid phase extraction, and endogenous rat brain Aβ1-42 and Aβ1-40 were quantified by ELISA as previously described for wild type mice. […]

Aβ1-40 (H4-APPsw) = test: Aβ1-40 time-resolved fluorescence immunoassay in H4-APPsw cell cultures; assay type: cell-based, human; settings: Homo sapiens; H4-APPsw cultures treated overnight
Procedure: as §1, §2

mNotch1ΔE = test: Notch signaling CBF1-luciferase reporter assay in HeLa cells transfected with mNotch1ΔE; assay type: cell-based
Procedure: (§3) Inhibition of Notch signaling in cultured cells using a mouse-derived truncated Notch1 transgene, mNotch-ΔE [67], has been described in detail previously. Western blots for mNotchΔ1865 and NICD using 9E10 anti-c-myc monoclonal were carried out as previously described.
(§4) The effect of BMS-869780 on Notch processing was evaluated using transcriptional reporter assays and western blotting of NICD levels. HeLa cell cultures were transfected with mNotch1ΔE and CBF1-luciferase reporter constructs and treated with BMS-869780. In most replicates of this experiment, inhibition of luciferase reporter occurred with IC50 > 10 μM. […] To further evaluate the effect of BMS-869780 on Notch processing, western blots of cell cultures were carried out using mNotch1Δ1865, a truncated version of mNotch1ΔE that facilitates separation of NICD product from mNotch1 substrate on western blots. HeLa cell cultures were transfected with mNotch1Δ1865 and treated overnight with compounds before western blotting. […] Furthermore, the GSIs caused an increased level of mNotch1Δ1865 substrate, most likely due to inhibition of its turnover by γ-secretase, as previously noted by Blat et al..
(§5) (b) HeLa cell cultures were transfected with mNotchΔ1865, treated with compounds overnight, and cell extracts were evaluated by western blot using anti-c-myc-HRP conjugate. Lanes 1 and 9: DMSO (0.1%) vehicle. Lane 2: BMS-299897 at 1 μM. Lane 3: BMS-433796 at 0.3 μM. Lanes 4–8: BMS-869780 at 0.1, 0.3, 1, 3, and 10 μM, respectively.

mNotch1Δ1865 = test: Western blot of NICD and mNotch1Δ1865 in transfected HeLa cell cultures; assay type: cell-based; settings: BMS-299897 at 1 μM, BMS-433796 at 0.3 μM
Procedure: as §3, §4, §5

C[C@H](NC(=O)[C@@H](O)c1cc(F)cc(F)c1)C(=O)N[C@@H]1C(=O)N(C)N=Cc2ccccc21 [BMS-433796, (S)-2-((S)-2-(3,5-difluorophenyl)-2-hydroxyacetamido)-N-((S,Z)-3-methyl-4-oxo-4,5-dihydro-3H-benzo[d][1,2]diazepin-5-yl)propanamide, reference compound]
IC50 (Aβ1-42 (H4-APPsw)): 0.16 nM
IC50 (Aβ1-40 (H4-APPsw)): 0.19 nM
Notch/Aβ1-42 IC50 ratios (mNotch1ΔE; GSIs): 13
IC50 (mNotch1ΔE; HeLa, treated overnight): 2.1 nM
mNotch1ΔE/Aβ1-42 (mNotch1ΔE; ratio of IC50 values): 13x
NICD levels (mNotch1Δ1865): greatly reduced NICD
